Legend:
Lin− bone marrow cells = assay: Culture of Lin− bone marrow cells in conditioned medium from stroma cells; type: cell-based, mice; conditions: conditioned medium from warfarin-treated stroma cells
Experimental: Conditioned medium was harvested from stroma from 5 mice grown in the above medium containing vehicle or warfarin for 7 days. Consequently, 100,000 Lin− cells were grown for 2-3 days in the conditioned medium and analyzed for cell counts by flow cytometry. Where indicated, the conditioned medium was concentrated using Microsep Advance Centrifugal Devices 30K Omega (Pall Life Sciences, Portsmouth, UK).

murine stroma cells = assay: Differentiation, gene expression and apoptosis of stroma and calvaria cells in presence of warfarin; type: cell-based
Experimental: Concentrations of drugs for in vitro use were 2 μM for warfarin, 2 μg/ml for periostin, 5 μM for the AKT inhibitor MK-2206 (Selleck Chemicals, Houston, TX) and cilengitide (Selleck Chemicals, Houston, TX, Cat. No. #S7077) was used at 0.05 μM. Phosphate buffered saline served as the vehicle control.
Bones from mice were crushed and plated and hematopoietic cells were removed the following day. As described (Mukherjee et al., 2008), after reaching confluence the stroma cells were cultured in α-MEM medium containing 10 mM β-glycerolphosphate, 10 nM dexamethasone and 50 μg/ml ascorbic acid for differentiation into osteoblastic cells (Mukherjee et al., 2008) or 500 nM insulin and 100 nM dexamethasone for differentiation into adipocytes. Differentiation was tested after 14-20 days by staining for von Kossa in the case of osteoblastic cells and Oil Red O in the case of adipocytes following standard staining protocols. Osteoclasts were purified from bone marrow macrophages, following standard protocols. Briefly, bone marrow cells were isolated from the femora and tibiae of 6-8 week old C57/B16 animals and cultured overnight at 37 C in α-MEM medium containing 10% fetal bovine serum and 1% antibiotic/antimycotic. The following day non-adherent cells were collected and separated by centrifugation on 50% Ficoll-Paque. Bone marrow-derived macrophages were seeded at 20,000 cells/well and cultured for 3 days in the presence of macrophage colony-stimulating factor (M-CSF) (50 ng/ml). On day 4 cells were also treated with receptor activator of nuclear factor kappa-B ligand (RANKL) (50 ng/ml) for an additional 4-5 days prior to tartrate-resistant acid phosphatase (TRAP) staining. Cells were treated with vehicle or warfarin (2 μM) for the entire culture period. […]
Quantitative PCR was performed using standard protocols.

HSPC = assay: Methylcellulose colony assay of BM cells from treated mice; type: cell-based; conditions: from warfarin-treated vs control mice, P=0.02
From the text: For the methylcellulose colony assays, we plated 10,000 total BM cells from vehicle- or warfarin-treated mice in methylcellulose (M3434, Stem Cell Technologies, Vancouver, Canada). We scored colonies after 10 days.

Lin− cells = assay: Plating of warfarin-exposed Lin− cells on untreated versus warfarin-treated stroma, with or without MK-2206; type: cell-based, mice
wildtype mice = assay: 5-fluorouracil-induced hematopoietic stress in warfarin-treated mice; type: in vivo
Experimental: 0.5 mg/kg/d or 0.05 mg/kg/d of warfarin, resuspended in phosphate-buffered saline was administered to mice via subcutaneously implanted osmotic minipumps (ALZET minipumps, Cupertino, CA). The osmotic minipumps were changed after 14 days (if the experiment went beyond 14 days of treatment). Sham operated (skin incision and suture) mice served as controls. Warfarin treatment continued for 10-14 days. In the xenotransplantation experiments the mice were treated with warfarin via the drinking water (or normal drinking water) at a dose of 0.72 mg/100 ml for a total of 3 days a week (Pfeilschifter et al., 2011).
5-fluorouracil was intraperitoneally injected every week at a dose of 75 mg/kg for a total of 4 doses or as a one time dose of 200 mg/kg. Recombinant mouse periostin (R&D Systems, Minneapolis, MN, cat. no. 2955-F2), produced in the Sf21 (baculovirus)-derived insect cell line, was administered intravenously at a dose of 2-4 μg per day and vitamin K was given at a dose of 15 mg/kg by oral gavage for four consecutive days.

CD45.1+ LKS cells = assay: Transplantation of sorted LKS or Lin− cells from warfarin-treated mice into untreated recipients; type: in vivo
Experimental: SJL (CD45.1) donor mice were treated with vehicle or warfarin, euthanized and long bones were flushed, followed by RBC lysis (Life Technologies, Darmstadt, Germany). For competitive transplantation 2×10^6 total BM cells from SJL mice were co-transplanted with 1×10^6 CD45.2+ BM competitor cells into lethally irradiated (900 cGy) C57BL/6N (CD45.2+) recipient mice. For serial transplantation 2×10^6 total CD45.1+ BM cells were transplanted into lethally irradiated C57BL/6N recipient mice. Cell engraftment and chimerism were assessed by flow cytometry of peripheral blood leukocytes for CD45.1 and CD45.2 after 4, 8, 12 and 16 weeks post transplantation. In the limiting dilution experiment we treated primary CD45.1+ donor mice with vehicle or warfarin for 14 days and, consequently, transplanted 5×10^5, 12.5×10^4, 6×10^4 and 1.5×10^4 pooled BM cells into 5 CD45.2+ recipients per group adding 5×10^5 CD45.2+ supporter cells. In indicated experiments we transplanted 5,000 or 10,000 sorted CD45.1+ LKS cells from mice treated with vehicle or warfarin plus 1×10^6 CD45.2+ total BM supporter cells into CD45.2+ recipient mice.

Lin− and LKS cells = assay: Homing assay to a warfarin-treated BMM; type: in vivo, mice; conditions: 18 hours after transplantation
Experimental: In the homing assay, we intravenously transplanted 9×10^6 Actin DsRed+ whole BM cells into C57BL/6N mice treated with vehicle or warfarin for 14 days. 18 hours later, we analyzed BM and spleen cells of recipient mice for the presence of DsRed+ LKS cells.

Compound: CC(=O)CC(c1ccccc1)c1c(O)c2ccccc2oc1=O (centres unmarked) [warfarin]
- Lin− cell fraction (Lin− bone marrow cells; P=0.0001): decrease
- total number of hematopoietic cells (Lin− bone marrow cells; P=0.0009): decrease
- myeloid cell fraction (Lin− bone marrow cells; P=0.001): decrease
- apoptosis of stroma cells in vitro (murine stroma cells; P=0.05): modest, but significant increase
- differentiation of murine stroma cells to adipocytes and osteoblasts (murine stroma cells; in presence of warfarin): significantly compromised
- relative expression of osteoblastic genes (Runx2, Alpl, Col1a1, Osx, Spp1, Bglap and others) (murine stroma cells; primary calvaria cells, warfarin vs vehicle): significantly reduced
- colony-forming ability of HSPC (HSPC): significantly impaired
- number of pAKT+ Lin− cells (Lin− cells; previously warfarin-exposed Lin− cells on untreated stroma, P=0.02): increased
- number of hematopoietic cells (Lin− cells; warfarin-treated Lin− cells on untreated compared to warfarin-treated stroma, P=0.009): increased number
- percentage of Lin− cells in the S/G2/M phases (Lin− cells; warfarin-treated Lin− cells on untreated compared to warfarin-treated stroma, P=0.02): increase
- leukocyte counts after 5-fluorouracil (wildtype mice; 7 days after one-time dose of 200 mg/kg 5-fluorouracil, P=0.03): lower
- survival (wildtype mice; higher dose (0.5 mg/kg), 75 mg/kg 5-fluorouracil days 0, 7, 14, 21, P=0.0004 Log-rank): similarly shortened
- survival (wildtype mice; lower dose (0.05 mg/kg), 75 mg/kg 5-fluorouracil days 0, 7, 14, 21, P=0.02 Log-rank): similarly shortened
- percentage of Lin− cells in the S/G2/M phases after transplantation into an untreated BMM (CD45.1+ LKS cells; Lin− cells from a warfarin-treated BMM, P=0.04): increase
- percentage of CD45.1+ donor cells in peripheral blood of recipients (CD45.1+ LKS cells; equal numbers of LKS cells from warfarin-treated donors, one month after transplantation, P=0.03): higher percentage
- reconstitution by warfarin-treated LKS cells (CD45.1+ LKS cells; higher number of transplanted LKS cells, 16 weeks post transplantation): lower than in the case of control LKS cells
- homing of Lin− and LKS cells to a warfarin-treated BMM (Lin− and LKS cells): not compromised

— patent publication US12162918B2, “Periostin compounds for the treatment of haematological complications” (Chemotherapeutisches Forschungsinstitut Georg-Speyer-Haus, priority 2018, dated 2024)
